Source: the NIST ThermoML archive (doi:10.1016/j.fluid.2016.10.026)

Settings: for surface tension liquid-gas: Drop volume; for kinematic viscosity / speed of sound / mass density: Liquid; for kinematic viscosity: Capillary tube (Ostwald / Ubbelohde) method; for speed of sound: Frequency=3 MHz, Sing-around technique in a fixed-path interferometer; for mass density: Vibrating tube method

CC(=O)c1cccs1 [2-acetylthiophene]
Settings | surface tension liquid-gas [mN/m]
278.15 K | 45.41
280.65 K | 45.14
283.15 K | 44.83
285.65 K | 44.58
288.15 K | 44.31
290.65 K | 44.01
293.15 K | 43.73
295.65 K | 43.46
298.15 K | 43.16
300.65 K | 42.86
303.15 K | 42.59
305.65 K | 42.31
308.15 K | 42.03
310.65 K | 41.72
313.15 K | 41.43

Settings | kinematic viscosity [m2/s] | mass density [kg/m3] | speed of sound [m/s]
278.15 K, 101 kPa | 3.7e-06 | 1185.43 | 1538.3
280.65 K, 101 kPa | 3.44e-06 | 1183.04 | 1529.7
283.15 K, 100 kPa | – | 1180.61 | –
283.15 K, 101 kPa | 3.21e-06 | 1180.64 | 1521.2
283.15 K, 2000 kPa | – | 1181.78 | –
283.15 K, 5000 kPa | – | 1183.44 | –
283.15 K, 7000 kPa | – | 1184.54 | –
283.15 K, 10000 kPa | – | 1186.17 | –
283.15 K, 15000 kPa | – | 1188.81 | –
283.15 K, 20000 kPa | – | 1191.4 | –
283.15 K, 25000 kPa | – | 1193.92 | –
283.15 K, 30000 kPa | – | 1196.37 | –
283.15 K, 35000 kPa | – | 1198.77 | –
283.15 K, 40000 kPa | – | 1201.11 | –
283.15 K, 45000 kPa | – | 1203.39 | –
285.65 K, 101 kPa | 3e-06 | 1178.25 | 1512.7
288.15 K, 100 kPa | – | 1175.97 | –
288.15 K, 101 kPa | 2.81e-06 | 1175.86 | 1503.9
288.15 K, 2000 kPa | – | 1177.04 | –
288.15 K, 5000 kPa | – | 1178.73 | –
288.15 K, 7000 kPa | – | 1179.85 | –
288.15 K, 10000 kPa | – | 1181.52 | –
288.15 K, 15000 kPa | – | 1184.21 | –
288.15 K, 20000 kPa | – | 1186.85 | –
288.15 K, 25000 kPa | – | 1189.43 | –
288.15 K, 30000 kPa | – | 1191.93 | –
288.15 K, 35000 kPa | – | 1194.37 | –
288.15 K, 40000 kPa | – | 1196.76 | –
288.15 K, 45000 kPa | – | 1199.09 | –
290.65 K, 101 kPa | 2.64e-06 | 1173.47 | 1495
293.15 K, 100 kPa | – | 1171 | –
293.15 K, 101 kPa | 2.51e-06 | 1171.07 | 1486.3
293.15 K, 2000 kPa | – | 1172.28 | –
293.15 K, 5000 kPa | – | 1174.02 | –
293.15 K, 7000 kPa | – | 1175.16 | –
293.15 K, 10000 kPa | – | 1176.85 | –
293.15 K, 15000 kPa | – | 1179.61 | –
293.15 K, 20000 kPa | – | 1182.3 | –
293.15 K, 25000 kPa | – | 1184.93 | –
293.15 K, 30000 kPa | – | 1187.48 | –
293.15 K, 35000 kPa | – | 1189.98 | –
293.15 K, 40000 kPa | – | 1192.41 | –
293.15 K, 45000 kPa | – | 1194.78 | –
293.15 K, 50000 kPa | – | 1197.1 | –
293.15 K, 55000 kPa | – | 1199.35 | –
293.15 K, 60000 kPa | – | 1201.56 | –
293.15 K, 65000 kPa | – | 1203.71 | –
295.65 K, 101 kPa | 2.35e-06 | 1168.68 | 1477.8
298.15 K, 100 kPa | – | 1166.24 | –
298.15 K, 101 kPa | 2.22e-06 | 1166.29 | 1469
298.15 K, 2000 kPa | – | 1167.52 | –
298.15 K, 5000 kPa | – | 1169.28 | –
298.15 K, 7000 kPa | – | 1170.46 | –
298.15 K, 10000 kPa | – | 1172.2 | –
298.15 K, 15000 kPa | – | 1175.02 | –
298.15 K, 20000 kPa | – | 1177.77 | –
298.15 K, 25000 kPa | – | 1180.44 | –
298.15 K, 30000 kPa | – | 1183.06 | –
298.15 K, 35000 kPa | – | 1185.59 | –
298.15 K, 40000 kPa | – | 1188.08 | –
298.15 K, 45000 kPa | – | 1190.5 | –
298.15 K, 50000 kPa | – | 1192.87 | –
298.15 K, 55000 kPa | – | 1195.17 | –
298.15 K, 60000 kPa | – | 1197.42 | –
298.15 K, 65000 kPa | – | 1199.61 | –
300.65 K, 101 kPa | 2.1e-06 | 1163.91 | 1460.5
303.15 K, 100 kPa | – | 1161.59 | –
303.15 K, 101 kPa | 1.99e-06 | 1161.52 | 1451.8
303.15 K, 2000 kPa | – | 1162.77 | –
303.15 K, 5000 kPa | – | 1164.6 | –
303.15 K, 7000 kPa | – | 1165.79 | –
303.15 K, 10000 kPa | – | 1167.56 | –
303.15 K, 15000 kPa | – | 1170.45 | –
303.15 K, 20000 kPa | – | 1173.26 | –
303.15 K, 25000 kPa | – | 1175.98 | –
303.15 K, 30000 kPa | – | 1178.65 | –
303.15 K, 35000 kPa | – | 1181.25 | –
303.15 K, 40000 kPa | – | 1183.77 | –
303.15 K, 45000 kPa | – | 1186.24 | –
303.15 K, 50000 kPa | – | 1188.64 | –
303.15 K, 55000 kPa | – | 1190.99 | –
303.15 K, 60000 kPa | – | 1193.27 | –
303.15 K, 65000 kPa | – | 1195.5 | –
305.65 K, 101 kPa | 1.9e-06 | 1159.13 | 1443.2
308.15 K, 100 kPa | – | 1156.84 | –
308.15 K, 101 kPa | 1.81e-06 | 1156.74 | 1434.8
308.15 K, 2000 kPa | – | 1158.03 | –
308.15 K, 5000 kPa | – | 1159.89 | –
308.15 K, 7000 kPa | – | 1161.11 | –
308.15 K, 10000 kPa | – | 1162.92 | –
308.15 K, 15000 kPa | – | 1165.87 | –
308.15 K, 20000 kPa | – | 1168.75 | –
308.15 K, 25000 kPa | – | 1171.53 | –
308.15 K, 30000 kPa | – | 1174.24 | –
308.15 K, 35000 kPa | – | 1176.89 | –
308.15 K, 40000 kPa | – | 1179.46 | –
308.15 K, 45000 kPa | – | 1181.98 | –
308.15 K, 50000 kPa | – | 1184.43 | –
308.15 K, 55000 kPa | – | 1186.82 | –
308.15 K, 60000 kPa | – | 1189.15 | –
308.15 K, 65000 kPa | – | 1191.41 | –
310.65 K, 101 kPa | 1.72e-06 | 1154.35 | 1426.1
313.15 K, 100 kPa | – | 1152.05 | –
313.15 K, 101 kPa | 1.65e-06 | 1151.96 | 1417.5
313.15 K, 2000 kPa | – | 1153.3 | –
313.15 K, 5000 kPa | – | 1155.19 | –
313.15 K, 7000 kPa | – | 1156.45 | –
313.15 K, 10000 kPa | – | 1158.29 | –
313.15 K, 15000 kPa | – | 1161.33 | –
313.15 K, 20000 kPa | – | 1164.23 | –
